Holding throughout (format): functional
The test system of experiment [1] is Mycoplasmoides pneumoniae. Nature of the experiment: Antimicrobial activity against Mycoplasma pneumoniae isolate M129 by agar dilution method. (In general: Agar dilution tests growth on a series of plates holding different concentrations.)
For experiment [2], the system named is Mycoplasmoides pneumoniae. The experiment is described as follows: Antimicrobial activity against Mycoplasma pneumoniae isolate FH by agar dilution method.
Experiment [3] concerns Mycoplasmoides pneumoniae. Nature of the experiment: Antimicrobial activity against macrolide-resistant Mycoplasma pneumoniae isolate 6 with A2604G mutation by agar dilution method.
Experiment [4] deals with Mycoplasmoides pneumoniae. The experiment is described as follows: Antimicrobial activity against macrolide-resistant Mycoplasma pneumoniae isolate 11 with A2604G mutation by agar dilution method.
The test system of experiment [5] is Mycoplasmoides pneumoniae. The experiment is described as follows: Antimicrobial activity against macrolide-resistant Mycoplasma pneumoniae isolate 2p with A2604G mutation by agar dilution method.
Experiment [6] concerns Mycoplasmoides pneumoniae. The experiment is described as follows: Antimicrobial activity against Mycoplasma pneumoniae isolate 18 by agar dilution method.
Experiment [7] deals with Mycoplasmoides pneumoniae. Nature of the experiment: Antimicrobial activity against Mycoplasma pneumoniae isolate 19 by agar dilution method.
Experiment [8] has as its system Mycoplasmoides pneumoniae. Nature of the experiment: Antimicrobial activity against macrolide-resistant Mycoplasma pneumoniae isolate 685 with A2603G mutation by agar dilution method.
Experiment [9] deals with Mycoplasmoides pneumoniae. The experiment is described as follows: Antimicrobial activity against macrolide-resistant Mycoplasma pneumoniae isolate 1006 with A2603G mutation by agar dilution method.

SMILES strings stand for the structures. Values after ≈ are worked out from the molar mass of the structure shown.

The values below come from ChEMBL document CHEMBL1275504, “Detection of macrolide resistance in Mycoplasma pneumoniae by real-time PCR and high-resolution melt analysis” (2008).

On to `CC[C@H]1OC(=O)[C@H](C)[C@@H](O[C@H]2C[C@@](C)(OC)[C@@H](O)[C@H](C)O2)[C@H](C)[C@@H](O[C@@H]2O[C@H](C)C[C@H](N(C)C)[C@H]2O)[C@](C)(O)C[C@@H](C)C(=O)[C@H](C)[C@@H](O)[C@]1(C)O` [ERYTHROMYCIN], for which the MIC in [1] was 0.063 µg/mL (≈ 0.0858 µM); in experiment [2], 0.063 µg/mL (≈ 0.0858 µM); in experiment [3] it was 128 µg/mL (≈ 174 µM); in experiment [4], 128 µg/mL (≈ 174 µM); in [5], 128 µg/mL (≈ 174 µM); in experiment [6], 0.063 µg/mL (≈ 0.0858 µM). In addition, the MIC was determined as 0.063 µg/mL (≈ 0.0858 µM) in [7], 128 µg/mL (≈ 174 µM) in experiment [8] and 128 µg/mL (≈ 174 µM) in experiment [9].
`CN(C)c1ccc(O)c2c1C[C@H]1C[C@H]3[C@H](N(C)C)C(O)=C(C(N)=O)C(=O)[C@@]3(O)C(O)=C1C2=O` [MINOCYCLINE]: the MIC in experiment [1] worked out at 0.25 µg/mL (≈ 0.546 µM); in experiment [2] it was 0.25 µg/mL (≈ 0.546 µM); in experiment [3], 0.125 µg/mL (≈ 0.273 µM); in [4], 0.125 µg/mL (≈ 0.273 µM); in [5], 0.25 µg/mL (≈ 0.546 µM); in experiment [6], 0.125 µg/mL (≈ 0.273 µM). In addition, the MIC in experiment [7], in experiment [8] and in experiment [9] was 0.125 µg/mL (≈ 0.273 µM) in each case.
With `CN(C)[C@@H]1C(O)=C(C(N)=O)C(=O)[C@@]2(O)C(O)=C3C(=O)c4c(O)cccc4[C@@](C)(O)[C@H]3C[C@@H]12` [TETRACYCLINE], the MIC amounted to 0.25 µg/mL (≈ 0.563 µM) in experiment [1]; 0.25 µg/mL (≈ 0.563 µM) in [2]; 0.25 µg/mL (≈ 0.563 µM) in experiment [3]; 0.25 µg/mL (≈ 0.563 µM) in experiment [4]; 0.25 µg/mL (≈ 0.563 µM) in experiment [5]; 0.125 µg/mL (≈ 0.281 µM) in experiment [6]. The MIC in experiment [7] stood at 0.25 µg/mL (≈ 0.563 µM); in experiment [8], 0.25 µg/mL (≈ 0.563 µM); in experiment [9], 0.125 µg/mL (≈ 0.281 µM).

As usually defined, the MIC is the lowest concentration found to suppress growth. Lower therefore signals greater potency.
